Results as given in patent US20030171420A1, “Compounds and compositions for use in ingibting endoparasitic fatty acid biosynthesis” (priority 2000, published 2003).

Experiments:
Plasmodium falciparum = Plasmodium falciparum growth inhibition in human red blood cells (parasite lactate dehydrogenase assay); assay type: cell-based; details: for IC50: Plasmodium falciparum, Erythrocyte, at 48 hours, P. falciparum in human red blood cells, read-out: 50% inhibitory concentration (IC50) for parasite growth
Method: Plasmodium falciparum was maintained in human red blood cells and the inhibitory effects of racemic thiolactomycin, or compound C on its growth was measured, employing assay techniques as described by Makkler, M. T., Ries, J. M., Williams, J. A., Bancroft, J. E., Piper, R. C., Gibbins, B. L. and Hinrichs, D. J., Parasite lactate dehydrogenase as an assay for Plasmodium falciparum drug sensitivity. Am. J. Trop. Med. Hyg. 48, 739-41 (1993).

[1] = system: fatty acid synthesis in Trypanosoma brucei; details: Morita et al., Science 288: 140-143 (2000); read-out: IC50 for inhibition of fatty acid synthesis in Trypanosoma brucei; cited from earlier work
[2] = system: Eimeria tenella parasites; test: Eimeria tenella invasion of MDBK cells after preincubation of parasites with compound; assay type: cell-based
Method: (§1) Compound C was tested against Eimeria tenella parasites in two separate assay procedures, as described (i) in Inhibition of the development of Eimeria tenella in cultured bovine kidney cells by a soluble factor produced by peripheral blood lymphocytes from immune chickens, J. M. Bumstead, S. J. Topham, F. M. Tomley, Parasitology, 117.39-47 (1998) and (ii) Eimeria tenella: Parasite-specific incorporation of 3H Uracil as a quantitative measure of intracellular development, Schmatz, D. M., Crane, M. S., is Murray, P. K., Journal of Protozology (1986) 33:109-114.
Preincubation of compound C with parasites caused a significant reduction in invasion of Madin-Darby Bovine Kidney (MDBK) cells at concentrations of 10 μM and above.

[3] = system: Eimeria tenella parasites; test: Eimeria tenella uracil uptake in infected MDBK cells; assay type: cell-based; details: uracil uptake as indicator of parasite viability
Method: as §1
In the second assay using infected MDBK cells, compound C caused a significant decrease in the uptake of uracil by the parasites (a recognised indicator of parasite viability) at concentrations greater than 5 μM.

| Structure (SMILES) | IC50 (Plasmodium falciparum) | IC50 [1] | concentrations causing a significant reduction in invasion of Madin-Darby Bovine Kidney (MDBK) cells [2] | concentrations causing a significant decrease in the uptake of uracil by the parasites [3] | times more active than racemic thiolactomycin in inhibiting growth of Plasmodium falciparum (Plasmodium falciparum; ratio of IC50 values at 48 hours) |
| --- | --- | --- | --- | --- | --- |
| C=C/C(C)=C/C1(C)SC(=O)C(C)=C1O (racemic) [Racemic thiolactomycin, Thiolactomycin, reference compound] | 40 µM | ~150 µM | – | – | – |
| CC(C)=CCC/C(C)=C/CC1(C)SC(=O)C(C)=C1O (stereo not drawn) [Compound C] | 0.5 µM | – | ≥ 10 µM | greater than 5 μM | approximately 80 times |
